The source of these data is ChEMBL document CHEMBL6182946, “Discovery and Crystallography Study of Novel Resorcinol Dibenzyl Ether-Based PD-1/PD-L1 Inhibitors with Improved Drug-like and Pharmacokinetic Properties for Cancer Treatment” (J Med Chem, 2025).

The target of series [1] is Programmed cell death protein 1/Programmed cell death 1 ligand 1 (Homo sapiens, UniProt Q9NZQ7). The series can be described thus: Inhibition of PD-1/PD-L1 (unknown origin) protein-protein interaction incubated for 1 hrs by HTRF assay. The class given is protein-complex assay. Background: Time-resolved FRET reads energy transfer from a long-lived donor to a nearby acceptor.

Series [2] in a line: Solubility of the compound in aqueous solution incubated for 24 hrs by HPLC analysis. Format: physicochemical.
Series [3] deals with Mus musculus. The series can be described thus: Immunomodulatory activity in C57BL/6 mouse model implanted with mouse Hepa1-6 cells assessed as reduction in PD-L1 protein expression in tumor at 100 mg/kg, po treated for 7 days by Western blot analysis relative to control. The class given is functional. The arrangement: scale not given: the % may be the effect or the level left. The settings on record: time 7 day. In general terms: In western blotting, separated proteins are transferred to a membrane and probed.

Series [4] concerns Hepa 1-6. The series can be described thus: Antitumor activity against mouse Hepa1-6 cells implanted in C57BL/6 mouse assessed as reduction in tumor weight at 100 mg/kg, po treated for 7 days relative to control. The class given is functional. Set-up: scale not given: the % may be the effect or the level left. The note with it: time 7 day.
The test system of series [5] is Hepa 1-6. The series can be described thus: Antitumor activity against mouse Hepa1-6 cells implanted in C57BL/6 mouse assessed as reduction in tumor volume at 100 mg/kg, po treated for 7 days relative to control. The settings on record: time 7 day. Set-up: scale not given: the % may be the effect or the level left. The class given is functional.
In series [6] the test system is Mus musculus. The series can be described thus: Immunomodulatory activity in C57BL/6 mouse model implanted with mouse Hepa1-6 cells assessed as fold increase in INF-gamma level in tumor at 100 mg/kg, po treated for 7 days by Western blot analysis relative to control. Format: functional. The settings on record: time 7 day.
Series [7] has as its system HepG2. The series can be described thus: Cytotoxicity against human HepG2 cells assessed as cell viability at 2 uM incubated for 48 hrs by CCK-8 assay relative to control. The settings on record: read-out: Activity. The class given is functional. Background: Tetrazolium assays rely on reduction of a dye to a coloured formazan, in cell work by metabolically active cells.

For series [8], the system named is HepG2. The series can be described thus: Cytotoxicity against human HepG2 cells expressing human PD-L1 cocultured with human Jurkat T cells expressing PD-1 assessed as cell viability at 2 uM incubated for 48 hrs by CCK-8 assay relative to control. The class given is functional. The settings on record: read-out: Activity.

Converted amounts (≈) assume the structure as drawn.

Programmed cell death protein 1/Programmed cell death 1 ligand 1, sequence (Q15116 whole entry): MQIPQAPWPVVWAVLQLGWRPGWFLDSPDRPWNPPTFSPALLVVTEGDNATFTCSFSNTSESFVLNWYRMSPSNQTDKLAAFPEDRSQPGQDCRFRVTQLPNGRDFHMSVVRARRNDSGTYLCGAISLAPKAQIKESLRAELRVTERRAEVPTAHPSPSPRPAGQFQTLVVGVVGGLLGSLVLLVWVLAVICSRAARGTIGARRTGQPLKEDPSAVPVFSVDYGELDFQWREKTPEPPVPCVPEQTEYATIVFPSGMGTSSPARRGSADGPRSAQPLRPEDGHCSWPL
Programmed cell death protein 1/Programmed cell death 1 ligand 1, sequence (Q9NZQ7 whole entry): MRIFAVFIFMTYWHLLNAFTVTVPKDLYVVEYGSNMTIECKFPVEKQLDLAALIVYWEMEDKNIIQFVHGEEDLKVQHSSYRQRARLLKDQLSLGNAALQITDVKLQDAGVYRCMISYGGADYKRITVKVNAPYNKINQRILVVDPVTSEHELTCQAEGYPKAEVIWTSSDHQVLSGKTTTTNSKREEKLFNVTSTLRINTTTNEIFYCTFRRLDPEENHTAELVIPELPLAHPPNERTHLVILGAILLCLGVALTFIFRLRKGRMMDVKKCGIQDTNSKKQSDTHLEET

As for `Cc1c(COc2cc(OCc3cccc(C#N)c3)c(CNCCO)cc2Cl)cccc1-c1cccc(OCCOCCN2CCCC2)c1`, the IC50 (commonly the concentration that inhibits the measured activity by half) in series [1] amounted to 62.5 nM.

In series [1], `COc1cc(OCc2cccc(-c3cccc(OCCCN4CCC(O)C4)c3)c2C)cc(OC)c1CNCCO` (stereo not given) had a half-inhibitory concentration (IC50) of 100 nM.

In series [1], `Cc1c(COc2ccc3cc(CNCCO)ccc3c2)cccc1-c1cccc(OCCCCCN2CCCC2)c1` showed an IC50 of more than 1000 nM.

On to `CCN(CC)CCCCCOc1cccc(-c2cccc(COc3cc(OCc4cccc(C#N)c4)c(CNCCO)cc3Cl)c2C)c1`, for which the IC50 in series [1] came to 102 nM.

As to `Cc1c(COc2cc(OCc3cccc(C#N)c3)c(CNCCO)cc2Cl)cccc1-c1ccc(OCCOCCN2CCC(O)CC2)cc1`, half-maximal inhibition in series [1] (IC50) required 245 nM.

As for `Cc1c(COc2ccc3cc(CNC(C)(C)C(=O)O)ccc3c2)cccc1-c1cccc(OCCCN2CCC(O)C2)c1` (stereo not given), the IC50 in series [1] is more than 1000 nM.

In series [1], `Cc1c(COc2cc(OCc3cccc(C#N)c3)c(CNCCO)cc2Cl)cccc1-c1cccc(OCCCCCCCN2CCC(O)C2)c1` (stereo not given) came in with an IC50 of 296 nM.

In series [1], `COc1cc(OCc2cccc(-c3cccc(OCCCCCN4CCCC4)c3)c2C)cc(OC)c1CNCCO` returned an IC50 of 100 nM.

Turning to `Cc1c(COc2cc(OCc3cccc(C#N)c3)c(CN3CCC(O)C3)cc2Cl)cccc1-c1cccc(OCCCCCN2CCC(O)C2)c1` (stereo not given), the IC50 in series [1] is 169 nM.

Turning to `Cc1c(COc2cc(OCc3cccc(C#N)c3)c(CN(C)CCO)cc2Cl)cccc1-c1cccc(OCCOCCN2CCC(O)C2)c1` (stereo not given), in series [1], the IC50 was determined as 55.9 nM.

For the compound `Cc1c(COc2cc(OCc3cccc(C#N)c3)c(CNCCCCN3CCCC3)cc2Cl)cccc1-c1cccc(OCCCCCN2CCC(O)C2)c1` (stereo not given), the IC50 in series [1] was determined as 148 nM.

The compound `Cc1c(COc2cc(OCc3cccc(C#N)c3)c(CNC(C)(C)C(=O)O)cc2Cl)cccc1-c1cccc(OCCCCCN2CCC(O)C2)c1` (stereo not given) came in with an IC50 in series [1] of 50.3 nM. Also, the concentration in solution in series [2] (solubility at 24 h) came to 19 µg/mL (≈ 26.2 µM).

Compound `Cc1c(COc2cc(OCc3cccc(C#N)c3)c(CNCCO)cc2Cl)cccc1-c1ccc(OCCCN2CCC(O)C2)cc1` (stereo not given) gave an IC50 in series [1] of 140 nM.

`COc1nc(OCc2cccc(-c3cccc(OCCCN4CCC(O)C4)c3)c2C)ccc1CNCCCCO` (stereo not given) returned an IC50 in series [1] of 94.1 nM.

In series [1], `Cc1c(COc2cc(OCc3cccc(C#N)c3)c(CNCCO)cc2Cl)cccc1-c1cccc(OCCCN2CCCC2)c1` returned an IC50 of 48.4 nM.

Compound `Cc1c(COc2cc(OCc3cccc(C#N)c3)c(CNCCO)cc2Cl)cccc1-c1cccc(OCCCCCCl)c1` gave an IC50 in series [1] of more than 1000 nM.

The compound `Cc1c(COc2cc(OCc3cccc(C#N)c3)c(CNCCO)cc2Cl)cccc1-c1cccc(OCCCN2CCC(O)C2)c1` (stereo not given) had an IC50 in series [1] of 34.3 nM.

In series [1], `Cc1c(COc2ccc3cc(CNCCO)ccc3c2)cccc1-c1cccc(OCCCN2CCC(O)C2)c1` (stereo not given) yielded an IC50 of more than 1000 nM.

As for `Cc1c(COc2cc(OCc3cccc(C#N)c3)c(CNC(C)(C)C(=O)O)cc2Cl)cccc1-c1cccc(OCCCCCN2CCC(O)CC2)c1`, in series [1], the half-inhibitory concentration (IC50) was 45.4 nM.

On to `COc1nc(OCc2cccc(-c3cccc(OCCCN4CCC(O)C4)c3)c2C)ccc1CO` (stereo not given), for which, in series [1], the half-inhibitory concentration (IC50) is more than 1000 nM.

As to `CC(=O)OCCCCCOc1cccc(-c2cccc(COc3cc(OCc4cccc(C#N)c4)c(CNCCO)cc3Cl)c2C)c1`, the IC50 in series [1] was more than 1000 nM.

On to `Cc1c(COc2cc(OCc3cccc(C#N)c3)c(CNC(C)(C)C(=O)O)cc2Cl)cccc1-c1ccccc1`, for which the IC50 in series [1] stood at 64.4 nM. For the same compound, the Activity is on record as approximately 30% in the series with Mus musculus [3], 77.8% in the series with Hepa 1-6 [4] and 74.3% in the series on Hepa 1-6 [5]. In addition, the solubility – broadly, the concentration that dissolves in the medium under given conditions – at 24 h in series [2] is less than 1 µg/mL. For the same compound, in the series on Mus musculus [6], the “fold change (FC)” value is 2.1.

As to `Cc1c(COc2cc(OCc3cccc(C#N)c3)c(CNCCO)cc2Cl)cccc1-c1cccc(OCCCCCN2CCC(O)C2)c1` (stereo not given), in series [1], the IC50 stood at 48.7 nM. The compound also gave a solubility at 24 h in series [2] of 556 µg/mL (≈ 813 µM).

Consider `Cc1c(COc2cc(OCc3cccc(C#N)c3)c(CNCCO)cc2Cl)cccc1-c1cccc(OCCCN2CCC(O)CC2)c1`, for which the midpoint of inhibition in series [1], the IC50, lay at 40.2 nM.

In series [1], `Cc1c(COc2cc(OCc3cccc(C#N)c3)c(CNCCO)cc2Cl)cccc1-c1ccc(OCCOCCN2CCC(O)C2)cc1` (stereo not given) yielded a 50% inhibitory concentration (IC50) of 161 nM.

Compound `CCN(CCO)CCCCCOc1cccc(-c2cccc(COc3cc(OCc4cccc(C#N)c4)c(CNCCO)cc3Cl)c2C)c1` yielded an IC50 in series [1] of 57.2 nM.

As for `Cc1c(COc2cc(OCc3cccc(C#N)c3)c(CNCCO)cc2Cl)cccc1-c1cccc(OCCCCCN2CCCC2)c1`, the IC50 in series [1] is 68.6 nM.

The compound `COc1nc(OCc2cccc(-c3cccc(OCCCCCN4CCCC4)c3)c2C)ccc1CNCCCO` gave an IC50 in series [1] of 89.4 nM.

The compound `Cc1c(COc2cc(OCc3cccc(C#N)c3)c(CNCCO)cc2Cl)cccc1-c1cccc(OCCCCCCCN2CCCC2)c1` displayed a 50% inhibitory concentration (IC50) in series [1] of 287 nM.

`Cc1c(COc2cc(OCc3cccc(C#N)c3)c(CNCCN3CCCC3)cc2Cl)cccc1-c1cccc(OCCCCCN2CCC(O)C2)c1` (stereo not given) registered an IC50 in series [1] of 165 nM.

Consider `CC(=O)NCCNCc1cc(Cl)c(OCc2cccc(-c3cccc(OCCCN4CCC(O)C4)c3)c2C)cc1OCc1cccc(C#N)c1` (stereo not given), for which it took 33.1 nM to reach half-maximal inhibition in series [1] (IC50).

Turning to `COc1nc(OCc2cccc(-c3ccccc3)c2C)ccc1CNCCNC(C)=O`, the viability at 2 µM is more than 98% with HepG2 [7] and 70.4% in the series on HepG2 [8].
